Data as given in PMC7571217, “Adenosine Receptor Ligands: Coumarin–Chalcone Hybrids as Modulating Agents on the Activity of hARs” (Molecules, 2020).

Legend:
hA1 = hA1 (Homo sapiens, UniProt P30542); assay: biochemical
Description: (§1) (5′-N-ethylcarboxamidoadenosine) to hA2A; and specific binding of [^3H]HEMADO (2-(1-hexynyl)-N^6-methyladenosine) to hA3. […] Due to the lack of a suitable radioligand for the hA2B receptor, the potency of antagonists at the hA2B receptor was determined by inhibition of NECA-stimulated adenylyl cyclase activity with increasing concentrations of antagonist.
(§2) The binding affinity for hA1, hA2A, hA3 of the synthetized compounds was evaluated using radioligand competition experiments in CHO cells that were stably transfected with the individual receptor subtypes. […] Due to the lack of a suitable radioligand for the hA2B receptor, the potency of antagonists at the hA2B receptor (expressed on CHO cells) was determined by inhibition of NECA-stimulated adenylyl cyclase activity. The IC50 for inhibition of cAMP (cyclic adenosine monophosphate) production was determined and converted to Ki values using the Cheng and Prusoff equation [56].
(§3) Ki values (dissociation constants) were determined in radioligand competition experiments with 7–8 different concentrations of test compound and each concentration was tested in duplicate. […] The program Prism 6 (GraphPad Software) was used for the analysis of the competition curves.

hA3 [1] = target: T1, hA3 (Homo sapiens, UniProt P0DMS8); assay: Radioligand competition binding, [3H]HEMADO, hA3 in CHO cells; conditions: [3H]HEMADO 1 nM, geometric mean of 3 experiments (95% CI)
T1 construct: expressed in transfected cells; host or cells: CHO cells (stably transfected)
T1 sequence (P0DMS8 1-318): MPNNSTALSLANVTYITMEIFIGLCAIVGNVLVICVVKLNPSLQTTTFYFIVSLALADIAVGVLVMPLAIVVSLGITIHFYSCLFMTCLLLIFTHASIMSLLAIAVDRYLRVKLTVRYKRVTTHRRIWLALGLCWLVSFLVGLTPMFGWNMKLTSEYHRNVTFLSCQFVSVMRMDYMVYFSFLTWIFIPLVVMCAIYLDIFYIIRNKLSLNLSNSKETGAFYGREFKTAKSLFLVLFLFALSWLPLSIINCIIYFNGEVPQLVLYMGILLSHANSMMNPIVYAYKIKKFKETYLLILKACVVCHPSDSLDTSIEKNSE
Description: as §1, §2, §3

hA3 [2] = target: T1, hA3; conditions: radioligand used at 1 nM; ref [44],[45]; cited from earlier work
hA2A = target: T2, hA2A (Homo sapiens, UniProt P29274); assay: Radioligand competition binding, [3H]NECA, hA2A in CHO cells; conditions: [3H]NECA 10 nM
T2 construct: expressed in transfected cells; host or cells: CHO cells (stably transfected)
T2 sequence (P29274 whole entry): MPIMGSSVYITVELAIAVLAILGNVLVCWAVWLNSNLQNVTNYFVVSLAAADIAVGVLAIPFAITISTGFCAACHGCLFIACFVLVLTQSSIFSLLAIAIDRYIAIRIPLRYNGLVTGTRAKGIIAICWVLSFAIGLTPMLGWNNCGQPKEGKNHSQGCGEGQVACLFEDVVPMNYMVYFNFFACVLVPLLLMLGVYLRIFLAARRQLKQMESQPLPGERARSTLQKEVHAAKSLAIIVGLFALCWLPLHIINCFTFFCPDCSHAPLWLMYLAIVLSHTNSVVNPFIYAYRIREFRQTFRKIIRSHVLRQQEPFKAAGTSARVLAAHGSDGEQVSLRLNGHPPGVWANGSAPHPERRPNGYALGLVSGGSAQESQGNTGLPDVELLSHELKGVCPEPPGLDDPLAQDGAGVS
Description: as §1, §2, §3

Sequence of hA1 (P30542 whole entry): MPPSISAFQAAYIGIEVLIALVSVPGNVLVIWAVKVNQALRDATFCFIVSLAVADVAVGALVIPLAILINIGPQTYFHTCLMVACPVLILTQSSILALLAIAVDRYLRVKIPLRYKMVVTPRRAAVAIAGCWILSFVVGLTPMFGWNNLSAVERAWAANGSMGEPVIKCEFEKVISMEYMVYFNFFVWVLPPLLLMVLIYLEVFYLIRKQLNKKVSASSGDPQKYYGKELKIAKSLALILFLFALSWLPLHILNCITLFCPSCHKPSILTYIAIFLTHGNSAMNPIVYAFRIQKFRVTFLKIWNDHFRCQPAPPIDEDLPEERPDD

Row | Structure (SMILES) | Ki (hA1) [µM] | Ki (hA3 [1]) [µM] | melting point [°C] | Kd (hA3 [2]) [µM] | Ki (hA2A) [µM]
1 | O=C(c1ccc(O)c(O)c1)c1cc2c(O)cc(O)cc2oc1=O [Compound 7] | 17.7 | > 30 |  |  | 
2 | O=C(c1ccc(O)cc1)c1cc2c(O)cc(O)cc2oc1=O [Compound 8, 5,7-Dihydroxy-3-(4′-hydroxybenzoyl)coumarin] | 29.1 | > 60 | 290 to 292 |  | 
3 | CCCCC#Cc1nc(NC)c2ncn([C@@H]3O[C@H](CO)[C@@H](O)[C@H]3O)c2n1 [[^3H]HEMADO, 2-(1-hexynyl)-N^6-methyladenosine] |  |  |  | 0.0012 | 
4 | COc1ccc2oc(=O)c(C(=O)c3ccc(OC)c(OC)c3)cc2c1 [Compound 2, 6-Methoxy-3-(3′,4′-dimethoxybenzoyl)coumarin] | > 100 | > 100 | 202 to 203 |  | > 100
5 | COc1ccc(C(=O)c2cc3c(OC)cc(OC)cc3oc2=O)cc1 [Compound 4, 5,7-Dimethoxy-3-(4′-methoxybenzoyl)coumarin] | > 100 | 2.49 | 174 to 175 |  | 
6 | COc1ccc(C(=O)c2cc3ccccc3oc2=O)cc1OC [Compound 1, 3-(3′,4′-Dimethoxybenzoyl)coumarin] | > 100 | > 100 | 190 to 191 |  | > 100
7 | O=C(c1ccc(O)c(O)c1)c1cc2cc(O)ccc2oc1=O [Compound 6] | 54 | > 60 |  |  | 
8 | O=C(c1ccc(O)c(O)c1)c1cc2ccccc2oc1=O [Compound 5] | 39.5 | 34.5 |  |  | 
9 | COc1cc(OC)c2cc(C(=O)c3ccc(OC)c(OC)c3)c(=O)oc2c1 [Compound 3, 5,7-Dimethoxy-3-(3′,4′-dimethoxybenzoyl)coumarin] | > 30 | 9.03 | 210 to 211 |  | 
